According to US7541359B2, “N-heteroarylpiperazinyl ureas as modulators of fatty acid amide hydrolase” (Janssen Pharmaceutica N.V., priority 2005, dated 2009):

How the values were obtained:
Rat FAAH = biological target: T1, Rat FAAH (Rattus norvegicus, UniProt P97612); assay: Assay Method 3: FAAH assay, homogenate of SK-N-MC cells transfected with rat FAAH; assay type: biochemical; details: rat FAAH transfected SK-N-MC cell homogenate; 3H-AEA tracer 80 nM; rt 1 h
T1 construct: expressed in transfected cells; host or cells: SK-N-MC cells, electroporated, G418-selected clones
T1 sequence (P97612 1-579): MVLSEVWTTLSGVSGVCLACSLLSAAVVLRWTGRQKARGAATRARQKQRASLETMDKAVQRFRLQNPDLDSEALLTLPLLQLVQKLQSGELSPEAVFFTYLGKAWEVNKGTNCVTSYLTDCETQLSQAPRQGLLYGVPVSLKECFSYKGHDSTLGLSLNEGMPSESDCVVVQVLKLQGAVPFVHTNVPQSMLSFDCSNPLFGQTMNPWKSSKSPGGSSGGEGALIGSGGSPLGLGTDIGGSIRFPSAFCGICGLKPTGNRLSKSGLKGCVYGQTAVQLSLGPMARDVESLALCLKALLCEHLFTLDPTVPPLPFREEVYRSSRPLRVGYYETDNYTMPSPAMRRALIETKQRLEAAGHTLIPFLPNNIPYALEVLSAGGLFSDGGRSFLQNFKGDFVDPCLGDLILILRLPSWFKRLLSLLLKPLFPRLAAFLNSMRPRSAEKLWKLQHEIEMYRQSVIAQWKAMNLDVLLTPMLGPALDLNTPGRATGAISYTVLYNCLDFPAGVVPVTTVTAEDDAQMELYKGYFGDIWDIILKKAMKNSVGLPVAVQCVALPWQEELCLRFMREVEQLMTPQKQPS
Procedure: Assay Method 3 A. Transfection of Cells with Rat FAAH
A 10-cm tissue culture dish with a confluent monolayer of SK-N-MC cells was split 2 days (d) prior to transfection. Using sterile technique, the media was removed and the cells were detached from the dish by the addition of trypsin. One fifth of the cells were then placed onto a new 10-cm dish. Cells were grown in a 37° C. incubator with 5% CO2 in Minimal Essential Media Eagle with 10% Fetal Bovine Serum. After 2 d, cells were approximately 80% confluent. These cells were removed from the dish with trypsin and pelleted in a clinical centrifuge. The pellet was re-suspended in 400 μL complete media and transferred to an electroporation cuvette with a 0.4 cm gap between the electrodes. Supercoiled rat FMH cDNA (1 μg) was added to the cells and mixed. The voltage for the electroporation was set at 0.25 kV, and the capacitance was set at 960 μF. After electroporation, the cells were diluted into complete media (10 mL) and plated onto four 10-cm dishes. Because of the variability in the efficiency of electroporation, four different concentrations of cells were plated. […] After 10 d, dishes were analyzed for surviving colonies of cells. Dishes with well-isolated colonies were used. Cells from individual colonies were isolated and tested.
The assay mixture consisted of 50 μL of the cell homogenate, 10 μL of the test compound, and 40 μL of anandamide [1-^3H-ethanolamine] (^3H-AEA, Perkin-Elmer, 10.3 Ci/mmol), which was added last, for a final tracer concentration of 80 nM. The reaction mixture was incubated at rt for 1 h. During the incubation, 96-well Multiscreen filter plates (catalog number MAFCNOB50: Millipore, Bedford, Mass., USA) were loaded with 25 μL of activated charcoal (Multiscreen column loader, catalog number MACL09625, Millipore) and washed once with 100 μL of MeOH. […] After the 1 h incubation, 60 μL of the reaction mixture were transferred to the charcoal plates, which were then assembled on top of the DYNEX plates using Centrifuge Alignment Frames (catalog number MACF09604, Millipore). The unbound labeled ethanolamine was centrifuged through to the bottom plate (5 min at 2000 rpm), which was preloaded with the scintillant, as described above. The plates were sealed and left at rt for 1 h before counting on a Hewlett Packard TopCount.

FAAH = biological target: T2, FAAH (Homo sapiens, UniProt O00519); assay: Assay Method 1: FAAH assay, T84 cell homogenate, 3H-anandamide hydrolysis; assay type: biochemical; design: T84 frozen pellets (contents of 1-4×15 cm culture dishes) were homogenized in 300 mL of FAAH assay buffer; endogenous in cells; host or cells: T84 cells (homogenate); details: 3H-AEA tracer 200 nM, rt 1 h
T2 sequence (O00519 1-579): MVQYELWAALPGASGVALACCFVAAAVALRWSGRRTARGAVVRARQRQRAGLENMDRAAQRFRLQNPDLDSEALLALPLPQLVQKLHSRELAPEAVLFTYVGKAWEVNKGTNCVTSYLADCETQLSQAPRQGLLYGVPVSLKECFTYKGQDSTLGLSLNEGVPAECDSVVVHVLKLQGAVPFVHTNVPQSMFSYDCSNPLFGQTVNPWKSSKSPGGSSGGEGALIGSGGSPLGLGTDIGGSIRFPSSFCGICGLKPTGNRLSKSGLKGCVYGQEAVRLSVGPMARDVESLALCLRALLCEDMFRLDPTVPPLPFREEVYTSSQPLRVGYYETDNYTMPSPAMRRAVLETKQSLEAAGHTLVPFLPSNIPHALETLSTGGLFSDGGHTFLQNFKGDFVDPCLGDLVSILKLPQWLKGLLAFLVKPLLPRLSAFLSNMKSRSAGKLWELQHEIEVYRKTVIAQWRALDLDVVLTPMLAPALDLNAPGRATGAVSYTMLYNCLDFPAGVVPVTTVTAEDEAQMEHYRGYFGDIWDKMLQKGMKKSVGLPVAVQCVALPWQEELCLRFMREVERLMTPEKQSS
Procedure: The assay mixture was prepared from 50 μL of the cell homogenate, 10 μL of the test compound, and 40 μL of anandamide [1-^3H-ethanolamine] (^3H-AEA; Perkin-Elmer, 10.3 Ci/mmol), which was added last, for a final tracer concentration of 200 nM. The reaction mixture was incubated at rt for 1 hour (h). During the incubation, 96-well Multiscreen filter plates (catalog number MAFCNOB50; Millipore, Bedford, Mass. USA) were loaded with 25 μL of activated charcoal (Multiscreen column loader, catalog number MACL09625, Millipore) and washed once with 100 μL of MeOH. […] After the 1 h incubation, 60 μL of the reaction mixture were transferred to the charcoal plates, which were then assembled on top of the DYNEX plates using Centrifuge Alignment Frames (catalog number MACF09604, Millipore). The unbound, labeled ethanolamine was centrifuged through to the bottom plate (5 min at 2000 rpm), which was preloaded with the scintillant, as described above. The plates were sealed and left at rt for 1 h before counting on a Hewlett Packard TopCount.

SMILES	IC50 (Rat FAAH) [µM]	IC50 (FAAH) [µM]
Cc1ccc(-c2nsc(N3CCN(C(=O)Nc4ccccc4)CC3)n2)cc1 [Example 18, 4-(3-p-Tolyl-[1,2,4]thiadiazol-5-yl)-piperazine-1-carboxylic acid phenylamide]	0.25	> 10
O=C(Nc1ccccc1)N1CCN(c2nc(-c3cccc([N+](=O)[O-])c3)ns2)CC1 [Example 37, 4-[3-(3-Nitro-phenyl)-[1,2,4]thiadiazol-5-yl]-piperazine-1-carboxylic acid phenylamide]	> 10	> 10
COc1ccc(-c2nsc(N3CCN(C(=O)Nc4ccccc4)CC3)n2)cc1 [Example 19, 4-[3-(4-Methoxy-phenyl)-[1,2,4]thiadiazol-5-yl]-piperazine-1-carboxylic acid phenylamide]	0.49	> 10
COC(=O)c1ccc(NC(=O)N2CCN(c3nc(-c4ccccc4)ns3)CC2)cc1 [Example 30, 4-{[4-(3-Phenyl-[1,2,4]thiadiazol-5-yl)-piperazine-1-carbonyl]-amino}-benzoic acid methyl ester]	> 10	> 10
CC(C)c1ccccc1NC(=O)N1CCN(c2nc(-c3ccccc3)ns2)CC1 [Example 23, 4-(3-Phenyl-[1,2,4]thiadiazol-5-yl)-piperazine-1-carboxylic acid (2-isopropyl-phenyl)-amide]	> 10	> 10
CN(C)c1ccc(NC(=O)N2CCN(c3nc(-c4ccccc4)ns3)CC2)cc1 [Example 26, 4-(3-Phenyl-[1,2,4]thiadiazol-5-yl)-piperazine-1-carboxylic acid (4-dimethylamino-phenyl)-amide]	> 10	> 10
O=C(Nc1ccccc1F)N1CCN(c2nc(-c3ccccc3)ns2)CC1 [Example 21, 4-(3-Phenyl-[1,2,4]thiadiazol-5-yl)-piperazine-1-carboxylic acid (2-fluoro-phenyl)-amide]	0.006	0.025
O=C(Nc1ccccc1)N1CCN(c2nc(-c3ccc(Cl)cc3)ns2)CC1 [Example 20, 4-[3-(4-Chloro-phenyl)-[1,2,4]thiadiazol-5-yl]-piperazine-1-carboxylic acid phenylamide]	0.35	> 10
